# According to publication PMC6709486, “Safety, Tolerability, Pharmacokinetics, and Drug Interaction Potential of SPR741, an Intravenous Potentiator, after Single and Multiple Ascending Doses and When Combined with β-Lactam Antibiotics in Healthy Subjects” (Antimicrobial Agents and Chemotherapy, 2019):
# Peptide text beside a SMILES is read from it.
# Tests used:
# [1] = design: species or system human; settings: in vivo
# Procedure: In the SAD phase, healthy volunteers were screened within 28 days prior to dosing. Subjects were admitted to the clinical facility on day −1 for up to 3 days. A single dose of SPR741 (or placebo) was administered on day 1. Following completion of all safety assessments and sampling for PK analyses, subjects were discharged on day 2. A follow-up visit occurred 5 to 7 days after day 1 dosing. In the MAD phase, all subjects were admitted to the clinical facility on day −1. Dosing commenced on the morning of day 1. Three doses were administered daily at approximately 8 (±0.5)-h intervals for a total of 14 consecutive days. The last dose was administered on the morning of day 14. Blood and urine samples were collected for assessment of PK parameters. Subjects were discharged on day 16 following completion of all PK sample collection and safety assessments, and a follow-up visit occurred 5 to 7 days after the last dose.
# clinical = settings: human, in vivo, iv, 400 mg; for AUC(0-inf): AUC0-inf
# Text: The drug-drug interaction study was a phase 1, single-center, multiarm, open-label, randomized, three-period crossover study. The objective was to evaluate the DDI potential and the PK of SPR741 coadministered with each of three partner antibiotics as well as the DDI and PK effects of three partner antibiotics administered alone and with SPR741. The study comprised a screening phase (day −28 to day −2), three treatment arms (day 1 to day 8 for each arm), and an end-of-study follow-up (day 9). Each subject participated in screening, one treatment arm, and the end-of-study follow-up. The maximum duration of participation for each subject was approximately 37 days. Subjects remained in the clinical unit from the day before dosing (day −1) to 24 h after the third and last dose period (day 8).
# The DDI study consisted of three treatment arms with three dosing periods in each arm (days 1, 4, and 7). In random sequence, subjects received a single dose of study treatments with a 2-day washout period between each assigned treatment. In treatment arm 1, subjects received 400 mg of SPR741 i.v. over 1 h, 400 mg of SPR741 i.v. over 1 h plus 1.0 g of ceftazidime i.v. over 1 h, and 1.0 g of ceftazidime i.v. over 1 h. In treatment arm 2, subjects received 400 mg of SPR741 i.v. over 1 h, 400 mg of SPR741 i.v. over 1 h plus 4.5 g of piperacillin-tazobactam i.v. over 1 h, and 4.5 g of piperacillin-tazobactam i.v. over 1 h.
# For both studies, maximum plasma concentration (Cmax), area under the concentration-time curve from time zero to the last measurable time point (AUC0-t), area under the concentration-time curve from time zero to infinity (AUC0-inf), time to maximum concentration (Tmax), terminal elimination rate constant (kel), terminal half-life (t1/2), terminal clearance (CL), and volume of distribution (V) were determined. PK parameters were determined using WinNonlin Phoenix, version 6.4.
# For the SAD phase, blood samples were obtained predose (within 10 min), at 30 min following the start of infusion, at the end of infusion, and at 75, 90, 105, 120, and 150 min and 3, 4, 5, 6, 8, 10, 12, and 24 h following the start of infusion. For the MAD phase, blood was obtained predose (within 10 min), at 30 min following the start of infusion, at the end of infusion, and at 90 and 150 min and 3, 4, 5, 6, and 8 h following the start of infusion (day 1, first dose; day 14, last dose). Five additional blood samples were obtained at 10, 12, 24, 36, and 48 h following the start of infusion of the last dose (morning of day 14). For the DDI study, blood samples for determining plasma concentrations of SPR741 and each partner antibiotic were obtained predose (within −10 min), at 30 min, and at 1 h, 1 h 15 min, 1 h 30 min, 1 h 45 min, 2, 4, 8, 12, and 24 h postdose for each dose period. Plasma samples for drug concentration measurements were analyzed using a validated high-pressure liquid chromatography tandem mass spectrometry (HPLC-MS/MS) method. In brief, samples were spiked with a stable isotope-labeled internal standard and then extracted by protein precipitation before injection onto the HPLC-MS/MS system. Unique transitions were monitored for all test articles and internal standards. Plasma concentrations below the limit of quantitation were reported as 0.
# In the SAD/MAD study, geometric means were calculated for AUC and Cmax values. Analyses using linear models were performed to assess dose proportionality (both single dose and multiple dose), time dependence, accumulation, and attainment of steady state (multiple dose). Dose proportionality was assessed using linear models for the SAD and MAD cohorts separately. […] Point estimates and 90% confidence intervals (CIs), using the residual mean square error obtained from the ANOVA, were constructed for the comparisons between treatments. The point and CI estimates were back-transformed to give estimates of the ratios (percentages) of the geometric LSMs and corresponding 90% CIs.
# [2] = geometric LSM, reference treatment
smiles,measurement,setting,value
"CC(=O)N[C@H](C(=O)N[C@H](CO)C(=O)N[C@H]1CCNC(=O)[C@H]([C@@H](C)O)NC(=O)[C@H](CCN)NC(=O)[C@H](CCN)NC(=O)[C@H](CC(C)C)NC(=O)[C@@H](Cc2ccccc2)NC(=O)[C@H](CCN)NC1=O)[C@@H](C)O [SPR741] (HELM PEPTIDE1{[ac].T.[dS].[Dab].[Dab].[dF].L.[Dab].[Dab].T}$PEPTIDE1,PEPTIDE1,4:R3-10:R2$$$V2.0)",fraction of the dose excreted from 0 to 24 h postdose on day 14,[1],139.1%
same,"AUC0-inf, geometric LSM, reference treatment",clinical,"96,800 h·ng/ml"
same,Tmax,clinical,1 h
same,AUC(0-inf),clinical,90300 ng·h/mL
same,AUC(0-inf),clinical; [2],79300 ng·h/mL
same,AUC0-t,clinical; AUC0-t,89700 ng·h/mL
same,AUC,"clinical; AUC0-τ, geometric LSM, reference treatment",78700 ng·h/mL
same,clearance,clinical; CL,75 mL/min
same,Cmax,clinical,28100 ng/mL
same,Cmax,clinical; [2],28800 ng/mL
same,Vd,clinical; V,20.6 L
same,half-life,clinical; t1/2,3.2 h
